In US8871756B2 (Hoffmann-La Roche Inc., priority 2011, dated 2014):

System: RSV Long strain
Test: Viral cytopathic effect (CPE) assay, anti-RSV activity
Type: cell-based, Respiratory Syncytial Virus
Details: RSV Long strain (ATCC), cell viability after 6 days, Cell Counting kit-8
Procedure, shortened: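 EC50 was derived from CCK-8 viability at 450/630 nm measured 6 days post-infection. Infection used enough RSV Long strain for approximately 80–90% cytopathic effect, in the presence of half-log serially diluted compound. Cells were plated the day before at 6×10^3 per well in DMEM/10% FBS.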

[1] = human respiratory syncytial virus, 144 h

| EC50 [1] | EC50 | Structure (SMILES) |
| --- | --- | --- |
| 0.027 µM |  | NC1(CNc2nc(N3CC[S+]([O-])c4ccccc4C3)nc3ccc(Cl)cc23)COC1 (stereo not drawn) [Example 57-5, N-[(3-Aminooxetan-3-yl)methyl]-6-chloro-2-(1-oxido-2,3-dihydro-1,4-benzothiazepin-4(5H)-yl)quinazolin-4-amine] |
| 0.037 µM |  | NC1(CNc2nc(N3CCS(=O)(=O)c4ccccc4C3)nc3ccc(Cl)cc23)COC1 [Example 57-6, N-[(3-Aminooxetan-3-yl)methyl]-6-chloro-2-(1,1-dioxido-2,3-dihydro-1,4-benzothiazepin-4(5H)-yl)quinazolin-4-amine] |
| 0.081 µM |  | Cc1ccc2nc(N3CCS(=O)(=O)c4ccccc4C3)nc(NCCO)c2c1 [Example 57-7, 2-{[2-(1,1-Dioxido-2,3-dihydro-1,4-benzothiazepin-4(5H)-yl)-6-methylquinazolin-4-yl]amino}ethanol] |
| 2.77 µM |  | Cc1ccc2nc(N3CCSc4ccccc4C3)nc(N)c2c1 [Example 58, 2-(2,3-Dihydro-1,4-benzothiazepin-4(5H)-yl)-6-methylquinazolin-4-amine] |
| 0.746 µM |  | Cc1ccc2nc(N3CCS(=O)(=O)c4ccccc4C3)nc(N)c2c1 [Example 59, 2-(1,1-Dioxido-2,3-dihydro-1,4-benzothiazepin-4(5H)-yl)-6-methylquinazolin-4-amine] |
| 0.018 µM |  | Cc1ccc2nc(N3CCS(=O)(=O)c4ccccc4C3)nc(NCC(C)(C)N)c2c1 [Example 60, N^˜1^˜-[2-(1,1-Dioxido-2,3-dihydro-1,4-benzothiazepin-4(5H)-yl)-6-methylquinazolin-4-yl]-2-methylpropane-1,2-diamine] |
| 0.005 µM |  | Cc1ccc2nc(N3CCS(=O)(=O)c4ccccc4C3)nc(NCC3(N)COC3)c2c1 [Example 61-1, N-[(3-Aminooxetan-3-yl)methyl]-2-(1,1-dioxido-2,3-dihydro-1,4-benzothiazepin-4(5H)-yl)-6-methylquinazolin-4-amine] |
| 0.097 µM |  | Cc1ccc2nc(N3CCS(=O)(=O)c4ccccc4C3)nc(NCC3(N)CCC3)c2c1 [Example 61-2, N-[(1-Aminocyclobutyl)methyl]-2-(1,1-dioxido-2,3-dihydro-1,4-benzothiazepin-4(5H)-yl)-6-methylquinazolin-4-amine] |
|  | 0.0003 µM | Cc1ccc2nc(N3CC[S+]([O-])c4ccccc4C3)nc(NCC3(CN)COC3)c2c1 (stereo not drawn) [Example 62-1, N-{[3-(Aminomethyl)oxetan-3-yl]methyl}-6-methyl-2-(1-oxido-2,3-dihydro-1,4-benzothiazepin-4(5H)-yl)quinazolin-4-amine] |
|  | 0.019 µM | Cc1ccc2nc(N3CCS(=O)(=O)c4ccccc4C3)nc(NCCC(F)CN)c2c1 (stereo not drawn) [Example 62-4, N^˜4^˜-[2-(1,1-Dioxido-2,3-dihydro-1,4-benzothiazepin-4(5H)-yl)-6-methylquinazolin-4-yl]-2-fluorobutane-1,4-diamine] |
|  | 0.017 µM | Cc1ccc2nc(N3CCS(=O)(=O)c4ccccc4C3)nc(NCC(F)CCN)c2c1 (stereo not drawn) [Example 62-5, N^˜1^˜-[2-(1,1-Dioxido-2,3-dihydro-1,4-benzothiazepin-4(5H)-yl)-6-methylquinazolin-4-yl]-2-fluorobutane-1,4-diamine] |
| 0.006 µM |  | Cc1ccc2nc(N3CCSc4ccccc4C3)nc(NCC3(CN)COC3)c2c1 [Example 62-6, N-{[3-(Aminomethyl)oxetan-3-yl]methyl}-2-(2,3-dihydro-1,4-benzothiazepin-4(5H)-yl)-6-methylquinazolin-4-amine] |
| 3.13 µM |  | CC(=O)NCCNc1cc(N2CCS(=O)(=O)c3ccccc3C2)nc2ccc(C)cc12 [Example 63-1, N-(2-{[2-(1,1-Dioxido-2,3-dihydro-1,4-benzothiazepin-4(5H)-yl)-6-methylquinolin-4-yl]amino}ethyl)acetamide] |
| 2.02 µM |  | CC(=O)NCC1(CNc2cc(N3CCS(=O)(=O)c4ccccc4C3)nc3ccc(C)cc23)COC1 [Example 63-2, N-{[3-({[2-(1,1-D ioxido-2,3-dihydro-1,4-benzothiazepin-4(5H)-yl)-6-methylquinolin-4-yl]amino}methyl)oxetan-3-yl]methyl}acetamide] |
| 0.007 µM |  | CC(=O)NCCCNc1cc(N2CCS(=O)(=O)c3ccccc3C2)nc2ccc(C)cc12 [Example 63-3, N-(3-{[2-(1,1-Dioxido-2,3-dihydro-1,4-benzothiazepin-4(5H)-yl)-6-methylquinolin-4-yl]amino}propyl)acetamide] |
| 0.797 µM |  | CC(=O)Nc1nc(N2CCS(=O)(=O)c3ccccc3C2)nc2ccc(C)cc12 [Example 63-4, N-[2-(1,1-Dioxido-2,3-dihydro-1,4-benzothiazepin-4(5H)-yl)-6-methylquinazolin-4-yl]acetamide] |
| 0.035 µM |  | Cc1ccc2nc(N3CCS(=O)(=O)c4ccccc4C3)cc(N3CCC(C)(N)C3)c2c1 (stereo not drawn) [Example 64, 1-[2-(1,1-Dioxido-2,3-dihydro-1,4-benzothiazepin-4(5H)-yl)-6-methylquinolin-4-yl]-3-methylpyrrolidin-3-amine] |

| EC50 [1] | EC50 | Structure (SMILES) |
| --- | --- | --- |
| 0.322 µM |  | COc1cccc2c1S(=O)(=O)CCN(c1cc(NCC3(N)COC3)c3cc(C)ccc3n1)C2 [Example 65, N-[(3-Aminooxetan-3-yl)methyl]-2-(9-methoxy-1,1-dioxido-2,3-dihydro-1,4-benzothiazepin-4(5H)-yl)-6-methylquinolin-4-amine] |
| 0.002 µM |  | Cc1ccc2nc(N3CCS(=O)(=O)c4ccc(O)cc4C3)cc(NCC3(N)COC3)c2c1 [Example 66, 4-(4-{[(3-Aminooxetan-3-yl)methyl]amino}-6-methylquinolin-2-yl)-2,3,4,5-tetrahydro-1,4-benzothiazepin-7-ol 1,1-dioxide] |
| 0.585 µM |  | Cc1ccc2nc(N3CCS(=O)(=O)c4ccccc4C3)cc(NCC(C)(O)CO)c2c1 (stereo not drawn) [Example 67, 3-{[2-(1,1-Dioxido-2,3-dihydro-1,4-benzothiazepin-4(5H)-yl)-6-methylquinolin-4-yl]amino}-2-methylpropane-1,2-diol] |
| 2.01 µM |  | Cc1ccc2nc(N3CCS(=O)(=O)c4ccccc4C3)cc(NCC(O)CCO)c2c1 (stereo not drawn) [Example 68, 4-{[2-(1,1-Dioxido-2,3-dihydro-1,4-benzothiazepin-4(5H)-yl)-6-methylquinolin-4-yl]amino}butane-1,3-diol] |
| 0.007 µM |  | Cc1ccc2nc(N3Cc4ccccc4S(=O)(=O)C(C)C3)cc(NCCN)c2c1 (stereo not drawn) [Example 69-1, N-[6-Methyl-2-(2-methyl-1,1-dioxido-2,3-dihydro-1,4-benzothiazepin-4(5H)-yl)quinolin-4-yl]ethane-1,2-diamine] |
| 0.007 µM |  | Cc1ccc2nc(N3Cc4ccccc4S(=O)(=O)C(C)C3)cc(NCC3(N)COC3)c2c1 (stereo not drawn) [Example 69-2, N-[(3-Aminooxetan-3-yl)methyl]-6-methyl-2-(2-methyl-1,1-dioxido-2,3-dihydro-1,4-benzothiazepin-4(5H)-yl)quinolin-4-amine] |
| 0.071 µM |  | Cc1ccc2nc(N3CCS(=O)(=O)c4ccccc4C3)cc(NC3(CNC(=O)C(F)(F)F)COC3)c2c1 [Example 70, N-[(3-{[2-(1,1-Dioxido-2,3-dihydro-1,4-benzothiazepin-4(5H)-yl)-6-methylquinolin-4-yl]amino}oxetan-3-yl)methyl]-2,2,2-trifluoroacetamide] |
| 0.005 µM |  | Cc1ccc2nc(N3CCS(=O)(=O)c4ccccc4C3)cc(NC3(CN)COC3)c2c1 [Example 71, N-[3-(Aminomethyl)oxetan-3-yl]-2-(1,1-dioxido-2,3-dihydro-1,4-benzothiazepin-4(5H)-yl)-6-methylquinolin-4-amine] |
| 0.002 µM |  | Cc1ccc2nc(N3CCS(=O)(=O)c4ccccc4C3)cc(NC(CN)(CO)CO)c2c1 [Example 72, 2-(Aminomethyl)-2-{[2-(1,1-dioxido-2,3-dihydro-1,4-benzothiazepin-4(5H)-yl)-6-methylquinolin-4-yl]amino}propane-1,3-diol] |
| 6.98 µM |  | Cc1ccc2nc(N3CCS(=O)(=O)c4ccccc4C3)cc(N3CC(N)CC3=O)c2c1 (stereo not drawn) [Example 73, 4-Amino-1-[2-(1,1-dioxido-2,3-dihydro-1,4-benzothiazepin-4(5H)-yl)-6-methylquinolin-4-yl]pyrrolidin-2-one] |
| 1.94 µM |  | Cc1ccc2nc(N3CCS(=O)(=O)c4ccccc4C3)cc(NCC[S+](C)[O-])c2c1 (stereo not drawn) [Example 74, 2-(1,1-Dioxido-2,3-dihydro-1,4-benzothiazepin-4(5H)-yl)-6-methyl-N-[2-(methylsulfinyl)ethyl]quinolin-4-amine] |
| 0.002 µM |  | Cc1ccc2nc(N3CCS(=O)(=O)c4ccccc4C3)cc(NCCS(=O)(=O)CCN)c2c1 [Example 75, N-{2-[(2-Aminoethyl)sulfonyl]ethyl}-2-(1,1-dioxido-2,3-dihydro-1,4-benzothiazepin-4(5H)-yl)-6-methylquinolin-4-amine] |
| 0.006 µM |  | Cc1ccc2nc(N3CCS(=N)(=O)c4ccccc4C3)cc(NCCN)c2c1 (stereo not drawn) [Example 76, N-[2-(1-Imino-1-oxido-1,2,3,5-tetrahydro-4H-1lambda˜4˜,4-benzothiazepin-4-yl)-6-methylquinolin-4-yl]ethane-1,2-diamine] |
| 8.78 µM |  | Cc1ccc2nc(N3CCS(=O)(=O)c4ccccc4C3)cc(NCCS(C)(=N)=O)c2c1 (stereo not drawn) [Example 77, 2-(1,1-Dioxido-2,3-dihydro-1,4-benzothiazepin-4(5H)-yl)-6-methyl-N-[2-(S-methylsulfonimidoyl)ethyl]quinolin-4-amine] |
| 0.016 µM |  | Cc1ccc2nc(N3CCS(=N)(=O)c4ccccc4C3)cc(N3CC(N)C(O)C3)c2c1 (stereo not drawn) [Example 78-1, trans-4-Amino-1-[2-(1-imino-1-oxido-1,2,3,5-tetrahydro-4H-1lambda˜4˜,4-benzothiazepin-4-yl)-6-methylquinolin-4-yl]pyrrolidin-3-ol] |
| 2.79 µM |  | Cc1ccc2nc(N3CCS(=O)(=O)c4ccccc4C3)cc(N3CCC(C(N)=O)C3)c2c1 (stereo not drawn) [Example 79, 1-[2-(1,1-Dioxido-2,3-dihydro-1,4-benzothiazepin-4(5H)-yl)-6-methylquinolin-4-yl]pyrrolidine-3-carboxamide] |
